Measured values: paper PMC8151276, “An Integrated Approach toward NanoBRET Tracers for Analysis of GPCR Ligand Engagement” (Molecules, 2021)

Tests used:
[1] = molecular target: T1, PTGDR (Homo sapiens, UniProt Q13258); experiment: NanoBRET screen HiBiT-PTGDR in HEK293; type: binding
T1 construct: purchased Promega (in-house HiBiT-GPCR construct library, NanoBRET)
T1 sequence (Q13258 1-359): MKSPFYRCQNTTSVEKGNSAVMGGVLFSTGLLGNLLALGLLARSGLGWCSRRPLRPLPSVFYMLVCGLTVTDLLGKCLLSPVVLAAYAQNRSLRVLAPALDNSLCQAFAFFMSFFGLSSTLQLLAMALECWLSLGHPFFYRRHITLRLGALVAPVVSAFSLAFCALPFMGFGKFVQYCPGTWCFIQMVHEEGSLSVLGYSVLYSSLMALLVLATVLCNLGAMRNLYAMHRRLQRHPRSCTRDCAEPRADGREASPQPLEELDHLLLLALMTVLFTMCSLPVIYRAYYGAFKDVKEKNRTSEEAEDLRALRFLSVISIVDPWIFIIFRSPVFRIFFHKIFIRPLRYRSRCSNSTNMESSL
Procedure: (§1) Each tracer candidate was screened across the entire library of HiBiT-GPCR constructs using NanoBRET as the detection modality. As depicted in Figure 4A, the specificity of interactions was evaluated through decrease in BRET due to competitive displacement of a bound tracer by excess parental compound. Each tracer was analyzed for binding to each HiBiT-GPCR fusion in the absence and in the presence of competing parental compound. Briefly, HEK293 cells were transfected with HiBiT-GPCR constructs diluted into promoterless DNA to reduce expression and maximize translocation to the cell surface. Each tracer candidate was then screened at concentrations of 1 μM and 0.1 μM across cells expressing these fusions. Cells were treated for 1.5 h with tracer either alone or in the presence of 20 μM competing parental compound (i.e., control). BRET was measured upon addition of purified LgBiT and subsequent complementation with HiBiT genetically fused to a GPCR. The specificity of interactions was assessed through a decrease in BRET signal due to competitive displacement of the bound tracer. To further gauge the robustness of these interactions, the fold response over the control (i.e., BRETtracer/BRETcontrol) was calculated. We chose a 1.5-fold response, which translates to ≥7-fold signal over noise as the minimal threshold required to score an interaction as positive. […]. Below we highlight the screening results obtained for our exemplary fluorescent tracers based on Clozapine, Amitriptyline and AZD1283.
(§2) HiBiT-GPCR DNA constructs were diluted in 10 mM Tris pH 8 to a final concentration of 0.01 μg/μL, arrayed in 96-well plates and stored at −20 °C. For transfection, HEK293 cells were suspended in Opti-MEM (without phenol red) supplemented with 2% fetal bovine serum (Seradigm) and 100 units/mL penicillin–streptomycin (Gibco) at a final concentration of 220,000 cells/mL and dispensed into white 96-well plates at 90 μL/well. Subsequent transfections and screens were carried using an Agilent Bravo Automated Liquid Handling Platform. First, the 96-well HiBiT DNA arrays were diluted 25-fold in Opti-MEM (without serum or phenol red) to a final concentration of 0.0004 μg/μL and 20 μL of the diluted DNAs were transferred into new 96-well plates. Next, promoterless carrier DNA (1 μg/μL) was diluted 25-fold (0.04 μg/μL) and then dispensed into the diluted arrays at 20 μL/well. Following brief mixing, Viafect transfection reagent (Promega) diluted 16-fold into Opti-MEM was dispensed into the plates at 40 μL/well. After mixing by pipetting, plates were incubated for 10 min on the pipetting station deck. The DNA-transfection reagent complexes were then added to plates containing cells. To facilitate the screen, 10 μL of DNA-transfection reagent complexes were added in duplicates to the top 4 and bottom 4 rows, resulting in two identical 48-well arrays per plate. Plates with transfected cells were incubated for 18–20 h at 37 °C/5% CO2. A screen of each tracer across the entire library using two different concentrations requires duplicate plates of transfected cells. Depending on the number of tracers being screened, transfections can be scaled up using the same ratios. The next day, for each tracer, four 20× screening solutions in tracer dilution buffer (Promega) were prepared: two duplicates at final concentration of 20 μM and two duplicates at a final concentration of 2 μM. A competing unmodified compound was added to one of each duplicate at a final concentration of 400 μM. The four resulting solutions were diluted 4-fold in Opti-MEM without serum or phenol red to generate 5× solutions (5 µM and 0.5 µM tracer +/− 100 μM competing compound). To screen the library, a BioTek MultiFlo FX liquid dispenser was used to dispense 22.5 µL of tracer solution to the top 4 rows and 22.5 µL tracer + competing compound solution to the 4 bottom rows. Plates were briefly mixed on an orbital shaker and incubated for 1.5 h at room temperature. […]

[2] = molecular target: T2, CCKAR (Homo sapiens, UniProt P32238); experiment: NanoBRET screen HiBiT-CCKAR in HEK293; type: binding
T2 construct: purchased Promega (in-house HiBiT-GPCR construct library, NanoBRET)
T2 sequence (P32238 1-428): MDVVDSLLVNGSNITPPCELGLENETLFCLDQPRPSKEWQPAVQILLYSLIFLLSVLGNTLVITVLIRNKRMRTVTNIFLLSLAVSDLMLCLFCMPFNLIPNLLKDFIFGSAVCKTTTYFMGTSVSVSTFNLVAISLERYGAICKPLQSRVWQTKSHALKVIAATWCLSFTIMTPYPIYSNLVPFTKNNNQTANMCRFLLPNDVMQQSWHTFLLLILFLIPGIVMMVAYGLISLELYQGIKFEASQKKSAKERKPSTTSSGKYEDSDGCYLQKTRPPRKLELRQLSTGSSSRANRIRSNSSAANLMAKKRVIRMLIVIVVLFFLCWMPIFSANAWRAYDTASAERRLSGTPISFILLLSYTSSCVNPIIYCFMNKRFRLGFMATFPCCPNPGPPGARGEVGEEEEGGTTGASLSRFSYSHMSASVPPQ
Procedure: as §1, §2

SMILES | NanoBRET Fold Response ([1]; PTGDR, tracer 0.1μM) | NanoBRET Fold Response ([1]; PTGDR, tracer 1μM) | NanoBRET Fold Response ([2]; CCKAR, tracer 0.1μM) | NanoBRET Fold Response ([2]; CCKAR, tracer 1μM) | NanoBRET Fold Response ([1]; PTGDR, 0.1μM tracer) | NanoBRET Fold Response ([1]; PTGDR, 1μM tracer) | NanoBRET Fold Response ([2]; CCKAR, 0.1μM tracer) | NanoBRET Fold Response ([2]; CCKAR, 1μM tracer) | further results
Cc1cc2c(s1)Nc1ccccc1N=C2N1CCN(CCCNC(=O)CCOCCOCCOCCOCCNC(=O)CCc2ccc3n2[B-](F)(F)[N+]2=C(c4ccc[nH]4)C=CC2=C3)CC1 [Olanzapine-a-2-NB590] | 0.95 | 1.09 | 1.02 | 1.04 |  |  |  |  | 
CN(C)CCC=C1c2ccccc2CCc2ccc(C(=O)NCCNC(=O)CCOCCOCCOCCOCCNC(=O)CCc3ccc4n3[B-](F)(F)[N+]3=C(c5ccc[nH]5)C=CC3=C4)cc21 [Amitriptyline-b-2-NB590] |  |  |  |  |  |  |  |  | NanoBRET Fold Response ([1]; tracer at 1μM): 1.03; NanoBRET Fold Response ([2]; tracer at 0.1μM, listed as amitriptyline-b-2-NB590): 1.11; NanoBRET Fold Response ([2]; tracer at 1μM, listed as amitriptyline-b-2-NB590): 0.98
O=C(CCOCCOCCOCCOCCNC(=O)CCc1ccc2n1[B-](F)(F)[N+]1=C(c3ccc[nH]3)C=CC1=C2)NCCCN1CCN(C2=Nc3cc(Cl)ccc3Nc3ccccc32)CC1 [Clozapine-a-2-NB590] |  |  |  |  | 1.10 | 0.99 | 1.01 | 0.85 | 
CN1CCN(C2=Nc3cc(Cl)ccc3Nc3ccc(CNC(=O)CCOCCOCCOCCOCCNC(=O)CCc4ccc5n4[B-](F)(F)[N+]4=C(c6ccc[nH]6)C=CC4=C5)cc32)CC1 [Clozapine-b-2-NB590] |  |  |  |  | 1.10 | 1.01 | 1.02 | 0.88 | 
Cc1nc2n(c(=O)c1CCN1CCC(c3noc4cc(F)ccc34)CC1)CCCC2OC(=O)NCCOCCOCCOCCOCCNC(=O)CCc1ccc2n1[B-](F)(F)[N+]1=C(c3ccc[nH]3)C=CC1=C2 (stereo not shown) [Risperidone-2-NB590] | 1.01 | 0.93 | 1.20 | 0.99 |  |  |  |  | 
